This is an account of results in PMC3161826 (Journal of nuclear medicine : official publication, Society …, 2010).

Several values for one entry are separate records, joined by “and”; a condition that tells them apart may be missing. Equal values may be shown once. Read-outs that look alike come from different tables or passages of the source.

In assay [1] the target is T1, 18-kDa translocator protein (TSPO) (Homo sapiens, UniProt P30536). The experiment in a line: Competition binding assay with 3H-PK11195 in human brain tissue membranes.
In assay [2] the test system is 18-kDa translocator protein (TSPO). The description is as above. The note with it: for Ki ratio of LAB to HAB / Ki: brain tissue donors B1–B15; for Ki: read-out: Ki, MABs (single-site model), mixed-affinity binders, mean ± SEM.
Assay [3] has as its target T1, 18-kDa translocator protein (TSPO). The format is binding. The note with it: read-out: Ki, HABs; platelets, healthy volunteers P1–P13; single class of high-affinity sites, 9 of 13.
Target sequence in this assay (P30536 2-169): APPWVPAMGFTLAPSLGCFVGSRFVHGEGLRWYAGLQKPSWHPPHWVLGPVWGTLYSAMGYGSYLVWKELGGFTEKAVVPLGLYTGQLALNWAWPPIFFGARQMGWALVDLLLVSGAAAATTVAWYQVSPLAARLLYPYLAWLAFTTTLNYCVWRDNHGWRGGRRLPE
For assay [4], the system named is 18-kDa translocator protein (TSPO). The format is binding, human. The note with it: platelets, healthy volunteers.
Assay [5] concerns the target 18-kDa translocator protein (TSPO). To be noted: brain tissue donors B1–B15; ref Owen et al. ([6]); cited from earlier work.
The target of assay [6] is T1, 18-kDa translocator protein (TSPO). Type of assay: binding. The note with it: for Ki: unlabeled PBR28 50 nM in each well.
Setting [7] is: read-out: Ki, HABs, high-affinity binders, brain tissue donors B1–B15, mean ± SEM.
The mark [8] stands for this setting: read-out: Ki, LABs, low-affinity binders, brain tissue donors B1–B15, mean ± SEM.

A word on the Ki: it is a measure of affinity in units of concentration, obtained from inhibition or displacement.

`COc1ccc(OC)c(CN(C(C)=O)c2cc(F)ccc2Oc2ccccc2)c1` [DAA1106]: the Ki in assay [1] (setting [7]) stood at 2.8 ± 0.3 nM; in assay [1] (setting [8]), 13.1 ± 1.3 nM; in assay [2] it was 4.8 ± 0.4 nM. Further, the “Difference in affinity between HABs and LABs” value (“Difference” below) in assay [2] (brain tissue) is ~ 4 fold and ~ 5 fold and < 5 fold. The “Ki ratio of LAB to HAB” value in assay [2] is given as 4.7.

Turning to `CCN(CC)C(=O)Cc1c(-c2ccc(OC)cc2)nn2c(C)cc(C)nc12` [DPA713], the “Difference” value in assay [2] (brain tissue) is ~ 4 fold and < 5 fold.

With `COc1ccc(OC)c(CN(C(=O)CF)c2ccccc2Oc2ccccc2)c1` [PBR06], the Ki in assay [1] (setting [7]) was found to be 8.6 ± 2 nM; in assay [1] (setting [8]), 149 ± 46.6 nM. Moreover, the “Ki ratio of LAB to HAB” value in assay [2] came out at 17.

For the compound `COc1ccccc1CN(C(C)=O)c1cnccc1Oc1ccccc1` [PBR28, N-{[2-(methyloxy)phenyl]methyl}-N-[4-(phenyloxy)-3-pyridinyl]acetamide], the Ki in assay [3] was 3.1 ± 0.57 nM; in assay [1] (Ki, LABs, brain tissue, donors with no history of neurologic disease (B14–B33), single class of low-affinity receptors, 4 of 20) it was 237 ± 35 nM; in assay [1] (read-out: Ki, HABs, brain tissue, donors with no history of neurologic disease (B14–B33), single class of high-affinity receptors, 9 of 20) it was 2.9 ± 0.26 nM. Further, the “Mean fraction of high-affinity sites in MABs” value in assay [4] is reported as 63% ± 9.8; in assay [2] (brain tissue, donors with no history of neurologic disease), 58% ± 6.6. Moreover, in assay [5], the “Ki ratio of LAB to HAB” value is given as 55. In assay [2] (brain tissue, range across MAB subjects), the “Fraction of high-affinity sites in MABs, range of values” is on record as 38% to 83. The “Reduction (%) in specific signal after block with PBR28 (50 nM), HABs” value in assay [6] (PBR28 50 nM, 3H-PK11195 specific signal, HABs, 60 min, 0.05 µM) is 70% and 69.0 ± 4.6 (n = 4) %. Also, the “Reduction (%) in specific signal after block with PBR28 (50 nM), LABs” value in assay [6] (PBR28 50 nM, 3H-PK11195 specific signal, LABs) is 21% and 21.2 ± 4.8 (n = 4) %. Further, in assay [6] (PBR28 at 50 nM, expected occupancy), the “Occupancy of binding sites in HABs” value is on record as “approximately 94%”. The receptor occupancy at 0.05 µM in assay [6] (read-out: Occupancy of binding sites in LABs) is around 21%.

`CCN(CC)C(=O)Cc1c(-c2ccc(OCCCF)cc2)nc2ccc(Cl)cn12` [PBR111]: the Ki in assay [1] (setting [7]) came out at 15.6 ± 3.7 nM; in assay [1] (setting [8]) it was 61.8 ± 10.7 nM; in assay [2], 30.3 ± 4.1 nM; in assay [6] (read-out: Ki after block with PBR28 (50 nM), LABs, low-affinity binders), 51.7 ± 12.2 nM; in assay [6] (read-out: Ki after block with PBR28 (50 nM), MABs, mixed-affinity binders), 54.4 ± 5.3 nM. The “Difference” value in assay [2] (brain tissue) is ~ 4 fold and < 5 fold. Besides, in assay [2], the “Ki ratio of LAB to HAB” value was 4.0.
